Results as given in patent publication US11040031B2, “Pyrazole derivatives as MALT1 inhibitors” (Janssen Pharmaceutica NV, priority 2018, dated 2021).
Read-outs that look alike come from different tables or passages of the source.

Tests used:
[1] = tested on: Secretion of IL10 by OCI-LY3 ABC-DLBCL cells; assay: Human IL10 Mesoscale assay (OCI-LY3); format: cell-based; conditions: read-out: Human IL10 Mesoscale assay (OCI-LY3)
How it was run: (§1)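 TMD8 or OCI-LY3 ABC-DLBCL cells incubated with compound 24 h at 37° C without beta-mercaptoethanol. Secreted IL6 and IL10 in supernatant quantified by MSD electrochemiluminescence immunoassay; DMSO wells define maximum signal.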

[2] = tested on: Secretion of IL6 by OCI-LY3 ABC-DLBCL cells; assay: Human IL6 Mesoscale assay (OCI-LY3); format: cell-based; conditions: read-out: Human IL6 Mesoscale assay (OCI-LY3)
How it was run: as §1

[3] = tested on: OCI-Ly3 ABC-DLBCL cell line; assay: 4-day proliferation assay OCI-Ly3; format: cell-based; conditions: Homo sapiens, read-out: Anti-proliferation: OCI-LY-3 IC50
Protocol: To assess anti-proliferative effects, MALT1 inhibitor test compounds were tested in 4-day proliferation assays using three different DLBCL cell lines.
Cells should be kept between 0.5-2.5 million cells per mL during culturing and cells should be supplemented every 2-3 days with fresh 50 μM beta-mercaptoenthanol. No beta-mercaptoethanol is used during the proliferation assay. OCI-Ly7 cells were propagated in IMDM (ThermoFisher) supplemented with 10% fetal bovine serum (HyClone), 2 mM L-glutamine (Sigma Aldrich) and 50 μg/mL Gentamycin. Cell passage numbers should not exceed 30.
10,000 TMD8, 10,000 OCI-Ly3 or 2,000 OCI-Ly7 cells were seeded in 100 μL media per well and incubated for 4 days at 37° C. and 5% CO2. Cell plating numbers were chosen based on growth curves to ensure linear cell growth. After 4 days of incubation 50 μl CellTiterGLO reagent (Promega) were added to each well and luminescence was measured on the Envision after 10 min of incubation at room temperature.

[4] = molecular target: T1, full-length MALT1 protein (Strep-MALT1(1-824)-His) (Homo sapiens, UniProt Q9UDY8); assay: biochemical;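 further: fluorogenic LRSR-AMC substrate cleavage by MALT1, 50 min compound preincubation then 4 h reaction at RT, 11-point dilution from 30 µM, scaled between enzyme-free and untreated enzyme controls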
T1 sequence (Q9UDY8 1-824): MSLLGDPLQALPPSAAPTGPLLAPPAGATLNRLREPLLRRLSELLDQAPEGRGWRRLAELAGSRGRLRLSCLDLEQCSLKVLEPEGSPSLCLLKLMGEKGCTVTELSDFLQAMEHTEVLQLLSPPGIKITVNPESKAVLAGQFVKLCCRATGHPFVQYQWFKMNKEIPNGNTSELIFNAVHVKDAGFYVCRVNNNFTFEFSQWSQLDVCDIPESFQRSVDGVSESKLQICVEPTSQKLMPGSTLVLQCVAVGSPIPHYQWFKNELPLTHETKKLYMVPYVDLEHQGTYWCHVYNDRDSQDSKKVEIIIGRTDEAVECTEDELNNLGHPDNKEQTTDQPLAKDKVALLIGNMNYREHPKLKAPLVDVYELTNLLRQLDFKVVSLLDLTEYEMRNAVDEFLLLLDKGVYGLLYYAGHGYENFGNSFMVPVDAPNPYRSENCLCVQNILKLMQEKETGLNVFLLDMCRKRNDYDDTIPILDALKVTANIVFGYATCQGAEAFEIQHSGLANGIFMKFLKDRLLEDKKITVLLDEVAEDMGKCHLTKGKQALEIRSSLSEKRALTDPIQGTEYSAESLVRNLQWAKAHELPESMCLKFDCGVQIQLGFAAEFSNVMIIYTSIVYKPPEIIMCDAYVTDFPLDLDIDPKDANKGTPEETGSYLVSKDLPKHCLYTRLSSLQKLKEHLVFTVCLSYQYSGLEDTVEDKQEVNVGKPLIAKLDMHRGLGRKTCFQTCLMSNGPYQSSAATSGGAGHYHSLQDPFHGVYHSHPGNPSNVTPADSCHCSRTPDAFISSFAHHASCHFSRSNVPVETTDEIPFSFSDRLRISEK
Protocol: MALT1 protease activity was assessed in an in vitro assay using a tetrapeptide as substrate and full-length MALT1 protein (Strep-MALT1(1-824)-His) purified from baculovirus-infected insect cells. The tetrapeptide LRSR is coupled to AMC (7-amino-4-methylcoumarin) and provides a quenched, fluorescent substrate for the MALT1 protease (SM Biochemicals). Cleavage of AMC from the Arginine residue results in an increase in coumarin fluorescence measured at 460 nm (excitation 355 nm). […] Test compounds were spotted at 50 nL in 100% DMSO per well of a black 384-Proxiplate (Perkin Elmer). Test compound concentrations ranged from 30 μM to 0.5 nM using 11 dilution steps (1:3). Background signal was measured from control wells containing assay buffer without enzyme which functions as low control (LC). High control (HC) values were generated using the reaction with enzyme but no compound treatment. Compounds were pre-incubated with MALT1 enzyme for 50 minutes at RT. Substrate was added subsequently and fluorescence was measured in Labsystems fluoroskan at excitation 355 nm and emission 460 nm to determine time 0. The reaction was subsequently incubated for 4 h at RT and fluorescence was measured. […] The enzyme reaction was linear during the 4 h incubation period.
IC50 values were calculated using the following formula (Z prime should be >0.5):
From this an IC50 value (inhibitory concentration causing 50% inhibition) can be obtained. An estimate of the slope of the plot in terms of the Hill coefficient was also obtained.
With y=estimated response • UB=upper bound • LB=lower bound • h=hill

[5] = OCI-LY3 cells, 24 h incubation, supernatant, MSD V-Plex
[6] = 96 h, 10,000 OCI-Ly3 cells per well, 4 days, CellTiterGLO

IC50 [1, 5] [nM] | IC50 [2, 5] [nM] | IC50 [3, 6] [nM] | IC50 [4] [nM] | IC50 ([1]; OCI-Ly3, 24 h) [nM] | IC50 ([2]; OCI-Ly3, 24 h) [nM] | IC50 ([3]; OCI-Ly3, 96 h) [nM] | SMILES
71 | 98 | 851 | 54 |  |  |  | N#Cc1cc(NC(=O)c2cnn(-c3ccc(F)cc3Cl)c2C(F)(F)F)cnc1-n1nccn1 [Cpd 51, 1-(2-chloro-4-fluorophenyl)-N-(5-cyano-6-(2H-1,2,3-triazol-2-yl)pyridin-3-yl)-5-(trifluoromethyl)-1H-pyrazole-4-carboxamide]
49 | 69 | 2510 | 24 |  |  |  | N#Cc1cc(NC(=O)c2cnn(-c3ccc(F)c(N)n3)c2C(F)(F)F)cnc1-n1nccn1 [Cpd 63, 1-(6-amino-5-fluoropyridin-2-yl)-N-(5-cyano-6-(2H-1,2,3-triazol-2-yl)pyridin-3-yl)-5-(trifluoromethyl)-1H-pyrazole-4-carboxamide]
427 | 380 | 912 | 45 |  |  |  | Nc1nc(-n2ncc(C(=O)Nc3cnc(-n4nccn4)c(Cl)c3)c2C(F)(F)F)ccc1F [Cpd 62, 1-(6-amino-5-fluoropyridin-2-yl)-N-(5-chloro-6-(2H-1,2,3-triazol-2-yl)pyridin-3-yl)-5-(trifluoromethyl)-1H-pyrazole-4-carboxamide]
 |  |  | 148 | 141 | 129 | 275 | Cc1ccc(F)cc1-n1ncc(C(=O)Nc2cnc(-n3nccn3)c(C#N)c2)c1C(F)(F)F [Cpd 103, N-(5-cyano-6-(2H-1,2,3-triazol-2-yl)pyridin-3-yl)-1-(5-fluoro-2-methylphenyl)-5-(trifluoromethyl)-1H-pyrazole-4-carboxamide]
63 | 71 | 1820 | 112 |  |  |  | N#Cc1cc(NC(=O)c2cnn(-c3ccc(F)cc3F)c2C(F)(F)F)cnc1-n1nccn1 [Cpd 111, N-(5-cyano-6-(2H-1,2,3-triazol-2-yl)pyridin-3-yl)-1-(2,4-difluorophenyl)-5-(trifluoromethyl)-1H-pyrazole-4-carboxamide]
166 | 191 | 437 | 263 |  |  |  | N#Cc1cc(NC(=O)c2cnn(-c3c(F)cccc3Cl)c2C(F)(F)F)cnc1-n1nccn1 [Cpd 98, 1-(2-chloro-6-fluorophenyl)-N-(5-cyano-6-(2H-1,2,3-triazol-2-yl)pyridin-3-yl)-5-(trifluoromethyl)-1H-pyrazole-4-carboxamide]
56 | 120 | 2400 | 55 |  |  |  | O=C(Nc1cnc(-n2nccn2)c(Cl)c1)c1cnn(-c2ccnc3c2OCO3)c1C(F)(F)F [Cpd 52, 1-([1,3]dioxolo[4,5-b]pyridin-7-yl)-N-(5-chloro-6-(2H-1,2,3-triazol-2-yl)pyridin-3-yl)-5-(trifluoromethyl)-1H-pyrazole-4-carboxamide]
457 | 646 | 490 | 288 |  |  |  | Cc1nc(-n2ncc(C(=O)Nc3cnc(-n4nccn4)c(C#N)c3)c2C(F)(F)F)ccc1F [Cpd 160, N-(5-cyano-6-(2H-1,2,3-triazol-2-yl)pyridin-3-yl)-1-(5-fluoro-6-methylpyridin-2-yl)-5-(trifluoromethyl)-1H-pyrazole-4-carboxamide]
138 | 138 | 1260 | 162 |  |  |  | COc1cc(F)ccc1-n1ncc(C(=O)Nc2cnc(-n3nccn3)c(Cl)c2)c1C(F)(F)F [Cpd 81, N-(5-chloro-6-(2H-1,2,3-triazol-2-yl)pyridin-3-yl)-1-(4-fluoro-2-methoxyphenyl)-5-(trifluoromethyl)-1H-pyrazole-4-carboxamide]
93 | 129 | 269 | 170 |  |  |  | N#Cc1cc(NC(=O)c2cnn(-c3ccccc3C3CC3)c2C(F)(F)F)cnc1-n1nccn1 [Cpd 100, N-(5-cyano-6-(2H-1,2,3-triazol-2-yl)pyridin-3-yl)-1-(2-cyclopropylphenyl)-5-(trifluoromethyl)-1H-pyrazole-4-carboxamide]
195 | 407 | 7240 | 145 |  |  |  | O=C(Nc1cnc(-n2nccn2)c(Cl)c1)c1cnn(-c2cccc3c2OC(F)(F)O3)c1C(F)(F)F [Cpd 58, N-(5-chloro-6-(2H-1,2,3-triazol-2-yl)pyridin-3-yl)-1-(2,2-difluorobenzo[d][1,3]dioxol-4-yl)-5-(trifluoromethyl)-1H-pyrazole-4-carboxamide]
120 | 166 | 479 | 151 |  |  |  | Cc1cccc(F)c1-n1ncc(C(=O)Nc2cnc(-n3nccn3)c(C#N)c2)c1C(F)(F)F [Cpd 101, N-(5-cyano-6-(2H-1,2,3-triazol-2-yl)pyridin-3-yl)-1-(2-fluoro-6-methylphenyl)-5-(trifluoromethyl)-1H-pyrazole-4-carboxamide]
 |  |  | 170 | 174 | 148 | 324 | N#Cc1cc(NC(=O)c2cnn(-c3c(F)cc(F)cc3Cl)c2C(F)(F)F)cnc1-n1nccn1 [Cpd 99, 1-(2-chloro-4,6-difluorophenyl)-N-(5-cyano-6-(2H-1,2,3-triazol-2-yl)pyridin-3-yl)-5-(trifluoromethyl)-1H-pyrazole-4-carboxamide]
151 | 178 | 741 | 71 |  |  |  | N#Cc1cc(NC(=O)c2cnn(-c3ccc(F)c(F)c3Cl)c2C(F)(F)F)cnc1-n1nccn1 [Cpd 60, 1-(2-chloro-3,4-difluorophenyl)-N-(5-cyano-6-(2H-1,2,3-triazol-2-yl)pyridin-3-yl)-5-(trifluoromethyl)-1H-pyrazole-4-carboxamide]
 |  | 19100 | 776 |  |  |  | CN1CCCc2cccc(-n3ncc(C(=O)Nc4cnc(-n5nccn5)c(C#N)c4)c3C(F)(F)F)c21 [Cpd 131, N-(5-cyano-6-(2H-1,2,3-triazol-2-yl)pyridin-3-yl)-1-(1-methyl-1,2,3,4-tetrahydroquinolin-8-yl)-5-(trifluoromethyl)-1H-pyrazole-4-carboxamide]
 |  |  | 78 | 363 | 389 | 5010 | N#Cc1cc(NC(=O)c2cnn(-c3ccnc(N)c3Cl)c2C(F)(F)F)cnc1-n1nccn1 [Cpd 56, 1-(2-amino-3-chloropyridin-4-yl)-N-(5-cyano-6-(2H-1,2,3-triazol-2-yl)pyridin-3-yl)-5-(trifluoromethyl)-1H-pyrazole-4-carboxamide]
 |  | 1860 | 78 |  |  |  | N#Cc1cc(NC(=O)c2cnn(-c3cccc(F)c3Cl)c2C(F)(F)F)cnc1-n1nccn1 [Cpd 61, 1-(2-chloro-3-fluorophenyl)-N-(5-cyano-6-(2H-1,2,3-triazol-2-yl)pyridin-3-yl)-5-(trifluoromethyl)-1H-pyrazole-4-carboxamide]
 |  |  | 107 | 117 | 162 | 1200 | Nc1nccc(-n2ncc(C(=O)Nc3cnc(-n4nccn4)c(Cl)c3)c2C(F)(F)F)c1Cl [Cpd 57, 1-(2-amino-3-chloropyridin-4-yl)-N-(5-chloro-6-(2H-1,2,3-triazol-2-yl)pyridin-3-yl)-5-(trifluoromethyl)-1H-pyrazole-4-carboxamide]
 |  | 3390 | 62 |  |  |  | Cc1ccccc1-n1ncc(C(=O)Nc2cnc(-n3nccn3)c(C#N)c2)c1C(F)(F)F [Cpd 55, N-(5-cyano-6-(2H-1,2,3-triazol-2-yl)pyridin-3-yl)-1-(o-tolyl)-5-(trifluoromethyl)-1H-pyrazole-4-carboxamide]
